Test results taken from US20250345370A1, “MICROBIAL LIBERATION OF N-METHYLSEROTONIN FROM ORANGE FIBER” (Washington University, priority 2022, published 2025).

Assays:
[1] = Human studies with pea and orange fiber snack prototypes: fecal N-methylserotonin and serotonin levels; assay type: in vivo
Experimental: Human studies with pea and orange fiber snack prototypes. Two separate open-label, single group assignment studies were performed involving members of the Missouri Adolescent Female Twin Study (MOAFTS) cohort who were age 31-45 years at the time of enrollment. The first study with the pea fiber snack was performed between April and August 2017, while the second study with the orange fiber snack was conducted between August and December 2017. All participants provided written informed consent and the studies were approved by the Washington University Institutional Review Board (IRB ID #201611122). (ClinicalTrials.gov NCT03078283).
The design of the two studies were identical except for the fiber snack supplement used and the number of participants in each study. Individuals who were pregnant or trying to get pregnant, had inflammatory bowel disease, gastrointestinal cancer, hepatitis, HIV, renal failure, or allergies to dairy, eggs, fish, crustacean shellfish, tree nuts, sesame seeds, peanuts, wheat, gluten, soybeans, celery, or mustard were excluded from the study. In Study 1, four twin pairs were concordant for obesity (BMI>30 kg/m2) while five pairs were discordant with one member being obese and the other non-obese (n=18 participants, […] (mean±SD); Table S8B). Study 2 involved 24 participants: 12 dizygotic twin pairs [37±2.9 years (mean±SD)], nine of whom had participated in the pea fiber study; for these nine pairs, the interval between cessation of pea fiber snack consumption and initiation of orange fiber consumption ranged from 50 to 106 days [84+26 days (mean±SD)]. Participants consumed their normal, unrestricted diet for the first two weeks of the study (pre-intervention phase). At the beginning of week three, they supplemented their diets with one 35 g fiber snack serving a day for one week, then two 35 g snack servings a day the following week, and thereafter, three 35 g snacks per day for four weeks (weeks 5-8) at breakfast, lunch and dinner. No attempt was made to adjust the diets of participants other than supplementation with the fiber snack. Snack prototypes were manufactured by Mondeldz International, Inc. (see Table S8A for their composition), which participants received in weekly shipments from the study center. The pea fiber snacks were in the form of rotary biscuits (6.7 g total fiber/35 g snack) or extruded bars (8.1 g fiber/35 g snack) with participants having the option to alternate between them. The orange fiber snacks were all in the form of extruded bars (10.2 g total fiber/35 g snack). Compliance was monitored throughout by the study coordinator through weekly phone calls. The primary outcomes for each study were the effects of the respective prototypes on gut microbial community structure and function.
Fecal samples were collected by participants in small medically approved collection containers. Each fecal sample was frozen immediately at −20° C. and temporarily stored in dedicated freezers provided to participants at the beginning of the study. Within 12-48 hours after collection, all samples were shipped, via overnight delivery, in an insulated container containing frozen gel packs, to a biospecimen repository located in Washington University in St. Louis and overseen by one of the authors (A.C.H.). Once received, samples were stored at −80° C. until processing for LC-QqQ-MS analysis of N-methylserotonin levels and culture-independent characterization of ASV and CAZyme gene abundances.
Measurement of fecal N-methylserotonin levels—Each fecal sample was homogenized with a porcelain mortar (4 L) and pestle while submerged in liquid nitrogen; multiple 500 mg aliquots of the pulverized frozen material were stored at −80° C. N-methylserotonin was quantified using the same protocol that was employed for mouse fecal samples (as described herein elsewhere).
N-methylserotonin levels and microbiome CAZyme gene abundances in humans consuming fiber snack prototypes. […]

[2] = N-methylserotonin in drinking water of germ-free mice: body weight, epididymal fat, intake, survival; assay type: in vivo, germ-free C57BL/6J mice; details: for epididymal fat mass: vs untreated controls
Experimental: For experiments involving administration of N-methylserotonin to germ-free mice, a stock solution of the compound (100 mg/mL, Santa Cruz Biotechnologies) was prepared in sterile water and filter sterilized ([…]; Nalgene). The outer surface of tubes containing the stock solution was sterilized with Clidox (Pharmacal) and the tubes were introduced into gnotobiotic isolators using standard procedures. The stock solution was then diluted in darkened glass water bottles (Ancare) in order to administer doses of 1 mg/kg/day or 50 mg/kg/day (based on an experimentally determined average consumption of 5 mL of water/day/mouse). Every four days, bottles were replaced with new ones containing fresh N-methylserotonin. Each of the three arms of the experiment, including the control arm where unsupplemented drinking water was administered, consisted of 5 mice.
Fecal samples and body weights were collected weekly, while food and water intake were monitored daily by comparing pellet mass in the food hopper and the volume of water in water bottles at the beginning and end of a 24 h period and dividing these values by the number of mice per cage. All animals were euthanized between 0830 h and 0930 h without prior fasting. Luminal contents from the proximal and distal halves of the small intestine, the cecum and the colon, host tissues (liver, epididymal fat pads, gastrocnemius muscle, the distal quarter of the small intestine (ileum), cecum and entire colon) plus serum were collected, flash frozen in liquid nitrogen and stored at −80° C. prior to analyses.
Host effects of N-methylserotonin. To characterize the effects of N-methylserotonin on host physiology and metabolism, 12-week-old germ-free C57BL/6J mice were fed the unsupplemented HiSF-LoFV diet and administered N-methylserotonin via their drinking water at doses of 1 mg/kg/day or 50 mg/kg/day for 21 days (FIG. 2A). The 1 mg/kg/day dose was experimentally determined to result in fecal N-methylserotonin levels that were equivalent to those documented in mice colonized with the 14-member community consuming the orange fiber-supplemented HiSF-LoFV diet (133.5±15 ng/g versus 131±19 ng/g feces, respectively; p=0.92, unpaired t-test). The 50 mg/kg/d dose was equivalent to the estimated total amount of N-methylserotonin consumed each day in the 10% orange fiber-containing diet (based on the yield obtained after in vitro enzymatic digestion of the fiber with T. reesei cellulase).

CNCCc1c[nH]c2ccc(O)cc12 [N-methylserotonin]
fecal samples in which N-methylserotonin was undetectable ([1]; 36 samples, pea fiber snack prototype, weeks 3 and 5): 87%
fecal samples in which N-methylserotonin was present ([1]; 48 samples, participants consuming the orange fiber snack prototype): 98%
fecal N-methylserotonin concentration ([1]; orange fiber snacks at maximal dose (3 snacks/day), mean±SD): 72.5 ± 38.4 µM
fecal N-methylserotonin (undetectable) ([1]; pea fiber snack prototype, 87% of 36 samples): < 0.05 µg/g
epididymal fat mass ([2]; 1 mg/kg/day (lower dose)): not the lower dose
epididymal fat mass ([2]; 50 mg/kg/day (higher dose)): statistically significant reduction
mortality ([2]; 50 mg/kg/day group, 5 mice): one animal died within the first week
weight gain ([2]; drinking water, 21 days, vs untreated): statistically significant decrease in weight gain
food and water intake ([2]; measured daily, all three groups): remained consistent
